# Measured values reported in patent US11427783B2, “Perfuming compositions” (Firmenich SA, priority 2016, dated 2022).
# Where a name gives a salt, the structure may show the parent alone. Read-outs that look alike come from different tables or passages of the source.
# Experiments:
# [1] = Volatility of perfuming compounds in air; type: physicochemical
# [2] = Log P (n-octanol/water) of perfuming compounds
# [3] = physchem
# [4] = Odor threshold of perfuming compounds in air
# [5] = Table 8, perfuming compounds having a sweet note
# [6] = Table 9, perfuming compounds having a gourmand note
# [7] = Table 6, perfuming compounds having a fruity note
# [8] = Table 10, perfuming compounds having a woody note
# [9] = Table 5, perfuming compounds having a green note
smiles,measurement,setting,value
CCC(=O)/C=C/C1=C(C)CCCC1(C)C,Volatility (μg/l air),[1]; [5],15.81 μg/l air
same,Volatility (μg/l air),[1]; [6],15.81 μg/l air
same,Log P (n-octanol/water),[2]; [6],4.47
same,logP,[3]; n-octanol/water,4.47
C/C=C/C(=O)[C@@H]1[C@@H](C)C=CCC1(C)C (racemic),Volatility (μg/l air),[1]; [5],143.53 μg/l air
same,Volatility (μg/l air),[1]; [6],143.53 μg/l air
same,Log P (n-octanol/water),[2]; [6],4.13
same,logP,[3]; n-octanol/water,4.13
CC(C)=CCCC1=CCC(C)(C=O)CC1 (racemic),Odor Threshold,"[4]; Table 4, watery note",2.72E−02 μg/l air
same,Volatility,"[1]; Table 4, watery note",26.54 μg/l air
same,logP,[3]; n-octanol/water,5.14
Cc1ccc2c(c1)CC(C)(CO)C2 (racemic),Odor Threshold,"[4]; Table 4, watery note",1.28E−04 μg/l air
same,Volatility,"[1]; Table 4, watery note",4.86 μg/l air
same,logP,[3]; n-octanol/water,3.12
CC(C)=CCCC(C)CCCC(C)C=O (racemic),Odor Threshold,"[4]; Table 4, watery note",1.59E−02 μg/l air
same,Volatility,"[1]; Table 4, watery note",18.23 μg/l air
same,logP,[3]; n-octanol/water,5.2
CC(C)CCCC(C)CCO (racemic),Odor Threshold,"[4]; Table 7, citrus note",4.59E−02 μg/l air
same,Volatility,"[1]; Table 7, citrus note",76.57 μg/l air
same,logP,[3]; n-octanol/water,4.24
C=C(C)CC(C)OC(=O)C(C)C (racemic),Volatility (μg/l air),[1]; [5],9902.98 μg/l air
same,Volatility (μg/l air),[1]; [6],9902.98 μg/l air
same,Log P (n-octanol/water),[2]; [5],3.57
same,Log P (n-octanol/water),[2]; [6],3.57
same,logP,[3]; n-octanol/water,3.57
C/C=C/C(=O)C1C(C)=CCCC1(C)C (racemic),Volatility (μg/l air),[1]; [7],113.31 μg/l air
same,Log P (n-octanol/water),[2]; [7],3.65
same,Log P (n-octanol/water),[2]; [5],3.65
same,Log P (n-octanol/water),[2]; [8],3.65
same,logP,[3]; n-octanol/water,3.65
CC(C)=CCCC(C)CCOCC=O (racemic),Odor Threshold,"[4]; Table 7, citrus note",8.95E−04 μg/l air
same,Volatility,"[1]; Table 7, citrus note",4.70 μg/l air
same,logP,[3]; n-octanol/water,4.33
CC(C=O)Cc1ccc(C(C)(C)C)cc1 (racemic) [(+−)-2-methyl-3-[4-(2-methyl-2-propanyl)phenyl]propanal],Odor Threshold,"[4]; Table 4, watery note",2.39E−04 μg/l air
same,Volatility,"[1]; Table 4, watery note",12.86 μg/l air
same,logP,[3]; n-octanol/water,3.9
CCCCCCCCCC(C)C=O (racemic) [(+−)-2-methylundecanal],Odor Threshold,"[4]; Table 4, watery note",7.24E−05 μg/l air
same,Volatility,"[1]; Table 4, watery note",75.55 μg/l air
same,logP,[3]; n-octanol/water,5.01
CCCCCC1CCCC1=O (racemic) [(+−)-2-pentylcyclopentanone],Volatility (μg/l air),[1]; [5],560.22 μg/l air
same,Volatility (μg/l air),[1]; [6],560.22 μg/l air
same,Log P (n-octanol/water),[2]; [5],3.62
same,Log P (n-octanol/water),[2]; [6],3.62
same,logP,[3]; n-octanol/water,3.62
"C=CC(C)(O)CCC=C(C)C (racemic) [(+−)-3,7-dimethyl-1,6-octadien-3-ol]",Odor Threshold,"[4]; Table 7, citrus note",8.89E−05 μg/l air
"CC(C=O)Cc1ccc2c(c1)OCO2 (racemic) [(+−)-3-(1,3-BENZODIOXOL-5-YL)-2-METHYLPROPANAL]",Odor Threshold,"[4]; Table 4, watery note",2.23E−04 μg/l air
same,Volatility,"[1]; Table 4, watery note",3.57 μg/l air
same,logP,[3],1.28
CC(C)c1cccc(C(C)CC=O)c1 (racemic) [(+−)-3-(3-ISOPROPYL-1-PHENYL)BUTANAL],Odor Threshold,"[4]; Table 4, watery note",7.71E−04 μg/l air
same,Volatility,"[1]; Table 4, watery note",14.74 μg/l air
same,Volatility,[1]; [9],14.74 μg/l air
CC(C=O)Cc1ccc(C(C)C)cc1 (racemic) [(+−)-3-(4-isopropylphenyl)-2-methylpropanal],Odor Threshold,"[4]; Table 4, watery note",3.00E−03 μg/l air
same,Volatility,"[1]; Table 4, watery note",24.85 μg/l air
same,logP,[3]; n-octanol/water,3.59
CCCCCCCC1CCCC(=O)O1 (racemic) [(+−)-6-heptyltetrahydro-2H-pyran-2-one],Volatility (μg/l air),[1]; [7],0.90 μg/l air
same,Volatility (μg/l air),[1]; [5],0.90 μg/l air
same,Volatility (μg/l air),[1]; [6],0.90 μg/l air
same,Log P (n-octanol/water),[2]; [5],3.42
same,Log P (n-octanol/water),[2]; [6],3.42
same,logP,[3]; n-octanol/water,3.42
CCCCCC1CCCC(=O)O1 (racemic) [(+−)-6-pentyltetrahydro-2H-pyran-2-one],Volatility (μg/l air),[1]; [7],9.61 μg/l air
same,Volatility (μg/l air),[1]; [5],9.61 μg/l air
same,Volatility (μg/l air),[1]; [6],9.61 μg/l air
same,Log P (n-octanol/water),[2]; [5],2.22
same,Log P (n-octanol/water),[2]; [6],2.22
same,logP,[3]; n-octanol/water,2.22
"CC(CC=O)CCCC(C)(C)O (racemic) [(+−)-7-hydroxy-3,7-dimethyloctanal]",Odor Threshold,"[4]; Table 4, watery note",6.98E−03 μg/l air
same,Volatility,"[1]; Table 4, watery note",12.81 μg/l air
same,logP,[3]; n-octanol/water,2
CC(C)CC1CC(C)(O)CCO1 (racemic) [(+−)-TETRAHYDRO-2-ISOBUTYL-4-METHYL-4(2H)-PYRANOL],Odor Threshold,"[4]; Table 4, watery note",1.35E−02 μg/l air
same,Volatility,"[1]; Table 4, watery note",79.79 μg/l air
same,logP,[3]; n-octanol/water,2.22
CCCCC(CC)C(=O)OC (racemic) [(+−)-methyl 2-ethylhexanoate],Volatility (μg/l air),[1]; [8],6677.64 μg/l air
same,Log P (n-octanol/water),[2]; [8],3.37
same,logP,[3]; n-octanol/water,3.37
"CCCCC[C@H]1C(=O)CC[C@@H]1CC(=O)OC (racemic) [methyl 2-((1RS,2RS)-3-oxo-2-pentylcyclopentyl)acetate]",Odor Threshold,"[4]; Table 7, citrus note",5.77E−04 μg/l air
same,Volatility,"[1]; Table 7, citrus note",2.12 μg/l air
same,logP,[3]; n-octanol/water,2.92
"C=C(C)C1CC=C(C)CC1 (single isomer, unassigned; (+)) [(+)-LIMONENE]",Odor Threshold,"[4]; Table 7, citrus note",1.29E−01 μg/l air
"CC(OC=O)C1CCCC(C)(C)C1 (stereo not drawn) [1-(3,3-DIMETHYL-1-CYCLOHEXYL)ETHYL FORMATE]",Odor Threshold,"[4]; Table 7, citrus note",2.05E−01 μg/l air
same,logP,[3]; n-octanol/water,4.01
"CC1=CCC(C(C)C)=CC1 [1-methyl-4-(2-propanyl)-1,4-cyclohexadiene]",Odor Threshold,"[4]; Table 7, citrus note",1.16E−01 μg/l air
same,Volatility,"[1]; Table 7, citrus note",4298.67 μg/l air
same,logP,[3],5.87
CCOc1ccc2ccccc2c1 [2-ETHOXYNAPHTHALENE],Odor Threshold,"[4]; Table 7, citrus note",3.57E−03 μg/l air
same,Volatility,"[1]; Table 7, citrus note",22.67 μg/l air
same,logP,[3]; n-octanol/water,3.82
C/C=C/c1ccc(O)c(OC)c1 [2-methoxy-4-[(1E)-1-propen-1-yl]phenol],Volatility (μg/l air),[1]; [5],11.28 μg/l air
same,Volatility (μg/l air),[1]; [6],11.28 μg/l air
same,Log P (n-octanol/water),[2]; [6],2.15
same,logP,[3]; n-octanol/water,2.15
COc1cc(C=O)ccc1O [4-hydroxy-3-methoxybenzaldehyde],Volatility (μg/l air),[1]; [5],4.24 μg/l air
same,Volatility (μg/l air),[1]; [6],4.24 μg/l air
same,Log P (n-octanol/water),[2]; [6],0.72
same,logP,[3]; n-octanol/water,0.72
CCCCCCC1CCCC(=O)O1 (stereo not drawn) [6-hexyltetrahydro-2H-pyran-2-one],Volatility (μg/l air),[1]; [7],4.64 μg/l air
same,Volatility (μg/l air),[1]; [5],4.64 μg/l air
same,Volatility (μg/l air),[1]; [6],4.64 μg/l air
same,Log P (n-octanol/water),[2]; [5],3.00
same,Log P (n-octanol/water),[2]; [6],3.00
same,logP,[3]; n-octanol/water,3
C=CCCCCCCCCC=O [10-undecenal],Odor Threshold,"[4]; Table 4, watery note",3.15E−03 μg/l air
same,Volatility,"[1]; Table 4, watery note",136.73 μg/l air
same,logP,[3]; n-octanol/water,3.93
"CC/C=C\CC/C=C/C=O [(2E,6Z)-2,6-NONADIENAL″, (2E,6Z)-2,6-NONADIENAL]",Odor Threshold,"[4]; Table 4, watery note",1.46E−04 μg/l air
same,Volatility,"[1]; Table 4, watery note",632.43 μg/l air
same,Volatility,[1]; [9],632.43 μg/l air
CCCCC/C=C/CCC=O [(E)-4-DECENAL],Odor Threshold,"[4]; Table 7, citrus note",7.59E−05 μg/l air
same,Volatility,"[1]; Table 7, citrus note",691.34 μg/l air
"CCCOC(=O)[C@H](C)OC(C)(C)CC [(−)-PROPYL (S)-2-(1,1-DIMETHYLPROPOXY)PROPANOATE]",Odor Threshold,"[4]; Table 7, citrus note",4.98E−01 μg/l air
same,logP,[3]; n-octanol/water,3.17
CCCCOC(C)=O [BUTYL ACETATE],Volatility (μg/l air),[1],117207.52 μg/l air
same,Log P (n-octanol/water),[2]; [5],2.11
same,Log P (n-octanol/water),[2]; [6],2.11
same,logP,[3]; n-octanol/water,2.11
"CCCCCCCCCC=O [DECANAL″, DECANAL]",Odor Threshold,"[4]; Table 4, watery note",1.92E−03 μg/l air
same,Volatility,"[1]; Table 4, watery note",466.56 μg/l air
same,logP,[3]; n-octanol/water,3.99
C=CCSSCC=C [DIALLYL DISULFIDE],Volatility (μg/l air),[1]; [5],5487.52 μg/l air
same,Volatility (μg/l air),[1]; [6],5487.52 μg/l air
same,Log P (n-octanol/water),[2]; [6],3.30
same,logP,[3],3.3
CCCCCCCCCCCC=O [DODECANAL],Odor Threshold,"[4]; Table 4, watery note",9.90E−04 μg/l air
same,Volatility,"[1]; Table 4, watery note",144.79 μg/l air
same,logP,[3]; n-octanol/water,4.94
CCCCCCCCCCCC#N [DODECANENITRILE],Odor Threshold,"[4]; Table 4, watery note",3.20E−06 μg/l air
same,Volatility,"[1]; Table 4, watery note",56.74 μg/l air
same,logP,[3]; n-octanol/water,1.61
"COC(=O)c1c(C)cc(O)c(C)c1O [METHYL 2,4-DIHYDROXY-3,6-DIMETHYLBENZOATE]",Odor Threshold,"[4]; Table 4, watery note",4.89E−06 μg/l air
same,Volatility,"[1]; Table 4, watery note",1.52 μg/l air
same,logP,[3]; n-octanol/water,2.3
"CCCCCC#CC(=O)OC [METHYL 2-OCTYNOATE″, METHYL 2-OCTYNOATE]",Odor Threshold,"[4]; Table 4, watery note",8.31E−04 μg/l air
same,Volatility,"[1]; Table 4, watery note",472.01 μg/l air
same,Volatility,[1]; [9],472.01 μg/l air
same,logP,[3]; n-octanol/water,2.9
